Measured values as given in the supplement of paper PMC10883282.
± gives the standard deviation of the averaged measurements.

Tested on: RD
Experiment: relative viability vs DMSO control (72 h) (fraction); higher = more viable cells
Summary of the method: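 Sarcoma cell lines were seeded in 384-well plates at densities set to reach 80–90% confluence. After 24 h, 2.5 µl of serially diluted compound was added (source plates 10 mM to 0.0002 mM), and plates were held 72 h at 37 °C, 5% CO2, with 0.1% DMSO vehicle and a 5 µM positive control. Relative viability came from ATPLite readings as percent growth, averaged over up to triplicate wells. Data were rescaled so full viability equals 1 and none equals 0.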

SMILES | relative viability (0.00017 µM) | relative viability (0.00051 µM) | relative viability (0.00152 µM) | relative viability (0.00457 µM) | relative viability (0.01372 µM) | relative viability (0.04115 µM) | relative viability (0.1235 µM) | relative viability (0.3704 µM) | relative viability (1.111 µM) | relative viability (3.333 µM) | relative viability (10 µM)
O=C(Nc1cnn2ccc(N3CCC[C@@H]3c3cc(F)ccc3F)nc12)N1CC[C@H](O)C1 [Larotrectinib] | 1.07 ± 0.035 | 1.092 ± 0.0046 | 1.09 ± 0.059 | 1.1 ± 0.05 | 1.11 ± 0.042 | 1.1 ± 0.11 | 1.13 ± 0.051 | 1.12 ± 0.073 | 1.13 ± 0.037 | 1.1 ± 0.068 | 1.09 ± 0.12
COCc1c(-c2cc3cc(C)cc(OC)c3s2)c2c(N)ncnn2c1CN1CCNC(=O)C1 [Rogaratinib] | 1.03 ± 0.022 | 1.09 ± 0.017 | 1.08 ± 0.024 | 1.11 ± 0.037 | 1.09 ± 0.033 | 1.12 ± 0.016 | 1.1 ± 0.057 | 1.08 ± 0.03 | 1.07 ± 0.047 | 0.923 ± 0.042 | 0.569 ± 0.015
Cn1cnc2c(F)c(Nc3ccc(Br)cc3F)c(C(=O)NOCCO)cc21 [Binimetinib] | 1.01 ± 0.049 | 1 ± 0.04 | 0.978 ± 0.037 | 0.89 ± 0.054 | 0.798 ± 0.05 | 0.746 ± 0.028 | 0.677 ± 0.016 | 0.627 ± 0.036 | 0.588 ± 0.015 | 0.534 ± 0.035 | 0.507 ± 0.012
Cn1cc(-c2cc3c(N4CCN(c5ncc([C@@](C)(N)c6ccc(F)cc6)cn5)CC4)ncnn3c2)cn1 [Avapritinib] | 1.04 ± 0.055 | 1.03 ± 0.031 | 1.06 ± 0.02 | 1.05 ± 0.041 | 1.05 ± 0.033 | 1.03 ± 0.045 | 1.04 ± 0.02 | 1.06 ± 0.043 | 1.03 ± 0.043 | 0.939 ± 0.03 | 0.813 ± 0.087
C[C@]1(O)C[C@@H](c2nc(-c3ccc4ccc(-c5ccccc5)nc4c3)c3c(N)nccn32)C1 [Linsitinib] | 1.03 ± 0.04 | 1.09 ± 0.066 | 1.1 ± 0.047 | 1.06 ± 0.05 | 1.039 ± 0.0018 | 1.03 ± 0.035 | 0.875 ± 0.048 | 0.672 ± 0.0074 | 0.639 ± 0.028 | 0.633 ± 0.02 | 0.568 ± 0.0034
Cc1cc(Nc2ncnc3ccc(NC4=NC(C)(C)CO4)cc23)ccc1Oc1ccn2ncnc2c1 [Tucatinib] | 1.08 ± 0.071 | 1.09 ± 0.076 | 1.11 ± 0.04 | 1.08 ± 0.04 | 1.1 ± 0.026 | 1.1 ± 0.017 | 1.07 ± 0.067 | 1.11 ± 0.073 | 1.14 ± 0.081 | 1.18 ± 0.063 | 1.15 ± 0.061
Nc1cc(C(F)(F)F)c(-c2cc(N3CCOCC3)nc(N3CCOCC3)n2)cn1 [Buparlisib] | 1.09 ± 0.015 | 1.06 ± 0.025 | 1.09 ± 0.055 | 1.08 ± 0.05 | 1.07 ± 0.028 | 1.09 ± 0.045 | 1 ± 0.046 | 0.868 ± 0.045 | 0.428 ± 0.042 | 0.133 ± 0.011 | 0.126 ± 0.015
C[C@@H]1CCN(C(=O)CC#N)C[C@@H]1N(C)c1ncnc2[nH]ccc12 [Tofacitinib] | 1.05 ± 0.051 | 1.08 ± 0.064 | 1.1 ± 0.072 | 1.12 ± 0.055 | 1.13 ± 0.068 | 1.13 ± 0.063 | 1.13 ± 0.09 | 1.11 ± 0.029 | 1.14 ± 0.065 | 1.14 ± 0.051 | 1.13 ± 0.056
COc1cc2/c(=N/c3ccc(Br)cc3F)nc[nH]c2cc1OCC1CCN(C)CC1 [Vandetanib] | 1.1 ± 0.074 | 1.1 ± 0.066 | 1.09 ± 0.057 | 1.11 ± 0.081 | 1.1 ± 0.055 | 1.11 ± 0.088 | 1.04 ± 0.083 | 1.01 ± 0.061 | 0.96 ± 0.037 | 0.139 ± 0.017 | 0.0241 ± 0.0083
CCCS(=O)(=O)Nc1ccc(F)c(C(=O)c2c[nH]c3ncc(-c4ccc(Cl)cc4)cc23)c1F [Vemurafenib] | 1.14 ± 0.071 | 1.12 ± 0.08 | 1.14 ± 0.073 | 1.13 ± 0.073 | 1.12 ± 0.059 | 1.13 ± 0.061 | 1.11 ± 0.053 | 1.12 ± 0.053 | 1.14 ± 0.07 | 1.11 ± 0.036 | 0.785 ± 0.079
C=CC(=O)N1CCC([C@@H]2CCNc3c(C(N)=O)c(-c4ccc(Oc5ccccc5)cc4)nn32)CC1 [Zanubrutinib] | 0.942 ± 0.064 | 0.952 ± 0.048 | 0.964 ± 0.068 | 0.958 ± 0.058 | 0.952 ± 0.046 | 0.96 ± 0.079 | 0.926 ± 0.075 | 0.893 ± 0.11 | 0.876 ± 0.1 | 0.847 ± 0.081 | 0.843 ± 0.06
CC(=O)Nc1cccc(-n2c(=O)n(C3CC3)c(=O)c3c(Nc4ccc(I)cc4F)n(C)c(=O)c(C)c32)c1 [Trametinib] | 1.08 ± 0.027 | 1.07 ± 0.064 | 0.971 ± 0.099 | 0.838 ± 0.044 | 0.669 ± 0.07 | 0.608 ± 0.051 | 0.584 ± 0.032 | 0.558 ± 0.038 | 0.556 ± 0.03 | 0.523 ± 0.04 | 0.477 ± 0.022
C=CC(=O)N1CCC[C@@H](n2nc(-c3ccc(Oc4ccccc4)cc3)c3c(N)ncnc32)C1 [Ibrutinib] | 1.08 ± 0.04 | 1.11 ± 0.053 | 1.09 ± 0.032 | 1.13 ± 0.07 | 1.14 ± 0.063 | 1.12 ± 0.054 | 1.15 ± 0.062 | 1.15 ± 0.079 | 1.14 ± 0.083 | 1.13 ± 0.037 | 0.984 ± 0.058
Cc1ccc(F)c(NC(=O)Nc2ccc(-c3cccc4[nH]nc(N)c34)cc2)c1 [Linifanib] | 1.07 ± 0.027 | 1.07 ± 0.028 | 1.08 ± 0.039 | 1.124 ± 0.01 | 1.12 ± 0.025 | 1.1 ± 0.033 | 1.14 ± 0.018 | 1.14 ± 0.031 | 1.12 ± 0.031 | 1.11 ± 0.042 | 1.13 ± 0.029
CC[C@H](Nc1ncnc2[nH]cnc12)c1nc2cccc(F)c2c(=O)n1-c1ccccc1 [Idelalisib] | 1.08 ± 0.039 | 1.11 ± 0.035 | 1.12 ± 0.06 | 1.13 ± 0.042 | 1.13 ± 0.036 | 1.13 ± 0.039 | 1.1 ± 0.076 | 1.12 ± 0.062 | 1.1 ± 0.066 | 1.04 ± 0.06 | 0.927 ± 0.029
CC(C)(C)c1cc(NC(=O)Nc2ccc(-c3cn4c(n3)sc3cc(OCCN5CCOCC5)ccc34)cc2)no1 [Quizartinib] | 1.08 ± 0.04 | 1.07 ± 0.036 | 1.08 ± 0.035 | 1.08 ± 0.06 | 1.07 ± 0.035 | 1.06 ± 0.025 | 1.07 ± 0.05 | 1.05 ± 0.055 | 1.04 ± 0.025 | 0.942 ± 0.1 | 0.922 ± 0.065
CNC(=O)c1cc(Oc2ccc(NC(=O)Nc3ccc(Cl)c(C(F)(F)F)c3)c(F)c2)ccn1 [Regorafenib] | 1.06 ± 0.017 | 1.11 ± 0.028 | 1.13 ± 0.052 | 1.14 ± 0.089 | 1.13 ± 0.075 | 1.14 ± 0.063 | 1.12 ± 0.04 | 1.01 ± 0.058 | 0.877 ± 0.069 | 0.787 ± 0.05 | 0.558 ± 0.048
CNC(=O)c1ccc(-c2cnc3ncc(Cc4ccc5ncccc5c4)n3n2)cc1F [Capmatinib] | 1.11 ± 0.025 | 1.1 ± 0.053 | 1.13 ± 0.037 | 1.15 ± 0.065 | 1.12 ± 0.028 | 1.12 ± 0.042 | 1.13 ± 0.077 | 1.14 ± 0.053 | 1.15 ± 0.072 | 1.13 ± 0.12 | 1.1 ± 0.1
